# Test results from patent publication US7585851B2, “3′-prodrugs of 2′-deoxy-β-L-nucleosides” (priority 2000, dated 2009).
# Several values for one entry are separate records, joined by “and”; a condition that tells them apart may be missing. Identical values can stand only once. Counter-ions that a name gives are not always drawn. Like-named read-outs stand apart in the source and are kept apart here.
# Experiments:
# [1] = tested on: human erythroid burst-forming (BFU-E) progenitor cells; assay type: cell-based; conditions: human bone marrow clonogenic assay
# From the text: (§1) In particular, anemia and neutropenia are the most common drug-related clinical toxicities associated with the anti-HIV drug zidovudine (ZDV).
# [2] = tested on: human granulocyte-macrophage colony-forming (CFU-GM) progenitor cells; assay type: cell-based; conditions: human bone marrow clonogenic assay
# From the text: as §1
# [3] = Mitochondrial toxicity assay in HepG2 cells; assay type: cell-based, human; conditions: human
# [4] = tested on: HepG2 cells; assay: Mitochondrial toxicity assay in HepG2 cells; assay type: cell-based, human; conditions: human
# [5] = Single dose bioavailability of dival-L-dC (IV and oral) in cynomologus monkey; assay type: in vivo, cynomologus monkey (macaca fascicularis); conditions: oral dival-L-dC; analyte = label
# From the text: The drug was quantitated in plasma and urine with a liquid chromatography-mass spectrometry (LC-MS) technique.
# [6] = Solubility study in water (HPLC); conditions: for Solubility (g/L) / Solubility (mol/L): in water
# [7] = Bioavailability of the prodrugs of L-dC in monkeys, with and without L-dT; conditions: for % BA (bioavailability of L-dC): estimated relative to AUC of L-dC (oral dose)
# [8] = Day 25, analyte = label
# [9] = for Tlast: analyte = label
# [10] = biological target: virion-associated DNA polymerase of WHV (Woodchuck hepatitis B virus, UniProt P03160); assay: biochemical
# Sequence of virion-associated DNA polymerase of WHV (P03160 whole entry): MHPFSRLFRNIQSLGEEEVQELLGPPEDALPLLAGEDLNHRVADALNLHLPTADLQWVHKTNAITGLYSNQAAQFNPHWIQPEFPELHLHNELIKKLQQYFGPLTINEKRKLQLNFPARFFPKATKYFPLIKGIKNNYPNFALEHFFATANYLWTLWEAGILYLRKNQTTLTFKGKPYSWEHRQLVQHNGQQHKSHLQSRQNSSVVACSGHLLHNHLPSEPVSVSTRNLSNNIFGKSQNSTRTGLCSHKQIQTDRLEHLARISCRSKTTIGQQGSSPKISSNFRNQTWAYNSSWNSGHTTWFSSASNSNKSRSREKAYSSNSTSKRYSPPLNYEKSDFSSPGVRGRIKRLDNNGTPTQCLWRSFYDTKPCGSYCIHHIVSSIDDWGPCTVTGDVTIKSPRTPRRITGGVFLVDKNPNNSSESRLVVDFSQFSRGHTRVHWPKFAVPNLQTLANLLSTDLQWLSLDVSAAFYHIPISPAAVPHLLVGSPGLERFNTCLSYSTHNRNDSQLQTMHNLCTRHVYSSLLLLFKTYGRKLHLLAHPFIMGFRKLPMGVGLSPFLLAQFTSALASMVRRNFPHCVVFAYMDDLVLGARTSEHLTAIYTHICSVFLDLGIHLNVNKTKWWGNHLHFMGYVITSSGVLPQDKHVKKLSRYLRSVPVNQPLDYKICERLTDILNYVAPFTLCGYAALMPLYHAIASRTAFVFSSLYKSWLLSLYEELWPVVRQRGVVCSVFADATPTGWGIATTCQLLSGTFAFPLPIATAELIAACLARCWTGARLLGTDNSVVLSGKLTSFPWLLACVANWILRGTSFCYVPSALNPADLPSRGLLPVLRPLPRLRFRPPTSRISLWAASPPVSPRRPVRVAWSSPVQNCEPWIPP
# [11] = biological target: T1, human DNA polymerase β (Homo sapiens, UniProt P06746); assay type: biochemical; conditions: highest concentration tested 100 μM; read-out: IC50 Human DNA pol β
# From the text: (§2) Nucleosides and nucleoside analogs are usually metabolized within cells to their TP derivatives. Cellular DNA polymerases are routinely responsible for normal nuclear and mitochondrial DNA synthesis and repair. Because the TP metabolites are potential substrates for DNA polymerases, studies were undertaken to determine if L-dC-TP inhibited human DNA polymerases.
# [12] = biological target: T2, human DNA polymerase γ (Homo sapiens, UniProt P54098); assay type: biochemical; conditions: highest concentration tested 100 μM
# T2 sequence (P54098 1-1239): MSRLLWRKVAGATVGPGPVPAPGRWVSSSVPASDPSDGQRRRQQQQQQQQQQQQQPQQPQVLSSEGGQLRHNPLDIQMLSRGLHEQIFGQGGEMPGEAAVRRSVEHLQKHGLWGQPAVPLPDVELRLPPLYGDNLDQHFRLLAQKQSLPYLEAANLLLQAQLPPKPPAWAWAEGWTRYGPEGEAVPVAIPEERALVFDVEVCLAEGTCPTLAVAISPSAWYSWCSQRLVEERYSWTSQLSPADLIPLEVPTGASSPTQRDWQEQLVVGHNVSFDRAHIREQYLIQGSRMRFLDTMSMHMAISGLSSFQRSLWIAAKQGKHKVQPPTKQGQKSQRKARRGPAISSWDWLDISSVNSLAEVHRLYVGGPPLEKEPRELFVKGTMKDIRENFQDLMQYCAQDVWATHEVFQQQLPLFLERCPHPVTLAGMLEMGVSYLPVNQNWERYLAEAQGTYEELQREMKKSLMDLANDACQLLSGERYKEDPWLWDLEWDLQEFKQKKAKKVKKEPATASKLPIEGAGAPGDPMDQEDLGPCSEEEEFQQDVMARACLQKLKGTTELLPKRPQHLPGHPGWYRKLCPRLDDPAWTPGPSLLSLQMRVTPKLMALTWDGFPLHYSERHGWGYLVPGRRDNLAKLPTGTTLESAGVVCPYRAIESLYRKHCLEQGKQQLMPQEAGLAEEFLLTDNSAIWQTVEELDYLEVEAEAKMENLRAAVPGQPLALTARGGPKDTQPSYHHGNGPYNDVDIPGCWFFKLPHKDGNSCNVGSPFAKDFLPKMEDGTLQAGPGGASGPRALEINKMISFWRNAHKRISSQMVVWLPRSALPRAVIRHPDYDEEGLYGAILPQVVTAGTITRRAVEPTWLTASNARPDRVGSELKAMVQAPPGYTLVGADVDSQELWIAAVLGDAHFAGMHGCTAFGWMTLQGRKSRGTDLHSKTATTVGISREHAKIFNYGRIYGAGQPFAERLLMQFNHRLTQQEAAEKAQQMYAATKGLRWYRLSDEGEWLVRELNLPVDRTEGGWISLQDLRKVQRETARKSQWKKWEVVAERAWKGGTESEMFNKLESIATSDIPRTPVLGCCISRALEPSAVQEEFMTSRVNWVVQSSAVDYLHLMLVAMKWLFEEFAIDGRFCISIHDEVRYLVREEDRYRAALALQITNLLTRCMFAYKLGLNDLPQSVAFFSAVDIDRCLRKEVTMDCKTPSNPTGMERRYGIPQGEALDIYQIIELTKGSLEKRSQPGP
# From the text: as §2
# [13] = tested on: HepG2 cells; conditions: human
# [14] = in vitro; conditions: human
# [15] = octanol-1 / MilliQ water pH 6.5; Study 1, Study 2; listed as L-dC-3′,5′-divalinyl ester hydrochloride
# Experimental: (§3) To 1 mL of this solution, 1 mL of octanol-1 (B) saturated with MilliQ water (A′) was added.
# as §3
# [16] = Oral bioavailability of L-dC via dival-L-dC in cynomologus monkey (HPLC study)
# From the text: The drug was quantitated in plasma and in urine using HPLC analysis.
# [17] = Escalating oral dose toxicity of dival-L-dC in monkeys; assay type: in vivo, cynomologus monkey
# From the text: […]. […] Clinical observations were documented daily. Blood samples for hematology and serum chemistries were collected and body weight measured before treatment on Days 1, 4, 7, 10, and 14, and before necropsy on Day 17. After completion of Day 17 evaluations, all animals were euthanized and a complete necropsy performed, including macroscopic examination and comprehensive tissue collection.
# [18] = human
# [19] = Log P study, octanol-1/phosphate buffer pH 7.2
# [20] = tested on: cytosolic extracts of HepG2 cells; assay: Steady state phosphorylation kinetics in HepG2 cytosolic extracts; assay type: biochemical, human
# [21] = biological target: T1, human DNA polymerase β; conditions: from Chang, et al. / Yao, read-out: IC50 Human DNA pol β; cited from earlier work
# [22] = biological target: T2, human DNA polymerase γ; conditions: from Chang, et al. / Yao; cited from earlier work
# [23] = tested on: primary human hepatocytes; conditions: 24 h, 10 μM
# [24] = monkey, in vivo, po
# [25] = endogenous polymerase assay, read-out: IC50 Viral DNA pol (WHV DNA polymerase)
structure (smiles),measurement,setting,value
"Cc1cn([C@H]2C[C@H](N=[N+]=[N-])[C@@H](CO)O2)c(=O)[nH]c1=O [ZDV, zidovudine, reference compound]",IC50,[1],0.7 µM
same,IC50,[2],1.8 µM
same,CC50 at 14 days,[3],14 µM
same,"mtDNA, % of Control",[4],119 % of Control
"O=c1ccn([C@@H]2C[C@@H](O)[C@H](CO)O2)c(=O)[nH]1 [L-dU, β-L-2′-deoxyuridine]","share of drug excreted / recovered dose in urine, by analyte",[5],approximately 2.5%
"CC(C)[C@H](N)C(=O)O[C@@H]1C[C@@H](n2ccc(N)nc2=O)O[C@H]1CO [3′-val-L-dC, 3′-L-valine ester of 2′-deoxy-β-L-cytidine]",Solubility (g/L),[6],>408 g/L
same,Solubility (g/L),[6]; listed as 3′-valinyl ester hydrochloride of β-L-dC,> 408 g/L
same,"Concentration of solution of the maximum quantity available, single samples","[6]; water, saturation not obtained, 3 samples, listed as 3′-valinyl ester hydrochloride of β-L-dC",1.013 mol/L and 0.996 mol/L and 1.059 mol/L
same,% BA (bioavailability of L-dC),[7]; oral,85.1 ± 24.5%
"CC(C)[C@H](N)C(=O)OC[C@@H]1O[C@H](n2ccc(N)nc2=O)C[C@H]1O [5′-val-L-dC, 5′-L-valine ester of 2′-deoxy-β-L-cytidine hydrochloride]",Tlast (median),"[8]; dival-L-dC 1000 mg/kg/day oral, F",4 h
same,Tlast (median),"[8]; dival-L-dC 1000 mg/kg/day oral, M",5 h
same,Tlast (median),"[8]; dival-L-dC 2000 mg/kg/day oral, F",8 h
same,Tlast,"[9]; dival-L-dC 1000 mg/kg/day oral, Day 1, F",4 h
same,Tlast,"[9]; dival-L-dC 1000 mg/kg/day oral, Day 1, M",4 h
same,Tlast,"[9]; dival-L-dC 1000 mg/kg/day oral, Day 28, F",4 h
same,Tlast,"[9]; dival-L-dC 1000 mg/kg/day oral, Day 28, M",8 h
same,Tlast,"[9]; dival-L-dC 2000 mg/kg/day oral, Day 1, F",8 h
same,Tlast,"[9]; dival-L-dC 2000 mg/kg/day oral, Day 1, M",8 h
same,Tlast,"[9]; dival-L-dC 2000 mg/kg/day oral, Day 28, F",24 h
same,Tlast,"[9]; dival-L-dC 2000 mg/kg/day oral, Day 28, M",8 h
same,% BA (bioavailability of L-dC),[7]; oral,39.0 ± 11.4%
Nc1ccn([C@@H]2C[C@@H](O)[C@H](COP(=O)(O)OP(=O)(O)OP(=O)(O)O)O2)c(=O)n1 [L-dC-TP],IC50,[10],1.82 µM
same,IC50,[11],> 100 µM
same,IC50,[12],> 100 µM
same,apparent intracellular half-life,[13],15.5 ± 0.34 h
same,half-life,[14],15.5 h
"CC(C)[C@H](N)C(=O)OC[C@@H]1O[C@H](n2ccc(N)nc2=O)C[C@H]1OC(=O)[C@@H](N)C(C)C [dival-L-dC, 3′,5′-L-divaline ester of 2′-deoxy-β-L-cytidine]",P′ (B/A′),[15],1.80 × 10^−3 and 1.77 × 10^−3
same,administered oral dose recovered in urine,[16]; after 72 hours,31%
same,administered oral dose recovered in urine,[16]; within 8 hours,Approximately 26%
same,loss in body weight following the initial dose on Day 1,"[17]; 20 mg/kg oral, each animal",approximately 0.6 kg
same,BUN decrease at Day 17 compared to Day 1,"[17]; cumulative, all four monkeys",~43%
same,NOAEL,"[17]; single oral dose by gavage (escalation 20-2000 mg/kg), monkey",2000 mg/kg
same,plasma protein binding,[18],13.3%±2.6%
same,NOAEL,"[9]; 28 day oral, rat",< 500 mg/kg
same,Solubility (mol/L),"[6]; listed as 3′,5′-divalinyl ester hydrochloride of β-L-dC",more than 2.5 mol/L
same,conversion detected in the organic phase during log P experiment,[19],14%
same,share of the oral dose absorbed,[7],approximately 73%
same,share of the absorbed ester converted to L-dC,[7]; oral,more than 99%
same,% BA w/ L-dT,"[7]; oral, coadministered with 10 mg/kg L-dT",74.6 ± 9.9%
same,% BA (bioavailability of L-dC),"[7]; oral, listed as 3′,5′-divaline ester of L-dC",higher oral bioavailability than the parent L-dC
same,% BA (bioavailability of L-dC),"[7]; oral, listed as L-dC di-valine",72.7 ± 22.0%
Nc1ncnc2c1ncn2[C@@H]1CC[C@H](COP(=O)(O)OP(=O)(O)OP(=O)(O)O)O1 [L-ddA-TP],IC50,[10]; [25],2 ± 0.3 µM
"Nc1ccn([C@H]2CC[C@@H](CO)O2)c(=O)n1 [ddC, zalcitabine, reference compound]",CC50 at 14 days,[3],20 µM
"Nc1ccn([C@H]2C[C@H](O)[C@@H](CO)O2)c(=O)n1 [D-dC, D-Deoxycytidine, reference compound]",Vmax of phosphorylation,[20],2.15 nmol/min/mg protein
same,Solubility (g/L),[6],272 g/L
same,Solubility (mol/L),[6],1.03 mol/L
Cc1cn([C@H]2O[C@@H](COP(=O)(O)OP(=O)(O)OP(=O)(O)O)[C@H](O)[C@H]2F)c(=O)[nH]c1=O [L-FMAU-TP],IC50,[10]; [25],0.15 ± 0.05 µM
same,IC50,[21],> 50 µM
same,IC50,[22],> 50 µM
"Cc1cn([C@H]2C[C@H](O)[C@@H](CO)O2)c(=O)[nH]c1=O [Thd, D-thymidine]",Vmax of phosphorylation,[20],1.26 nmol/min/mg protein
Nc1ccn([C@@H]2CS[C@H](COP(=O)(O)OP(=O)(O)OP(=O)(O)O)O2)c(=O)n1 [Lamivudine-TP],IC50,[10]; [25],0.5 ± 0.1 µM
same,IC50,[21],1.2 µM
same,IC50,[22],0.01 µM
"O=c1ccn([C@@H]2C[C@@H](O)[C@H](COP(=O)(O)OP(=O)(O)OP(=O)(O)O)O2)c(=O)[nH]1 [L-dU-TP, β-L-2′-deoxyuridine 5′-triphosphate]",IC50,[10],5.26 µM
same,IC50,[11],> 100 µM
same,IC50,[12],> 100 µM
same,intracellular metabolite level,"[13]; 24 h, 10 μM",18.2 ± 1.0 µM
same,intracellular metabolite level,[23],43.5 ± 27 µM
"CC(=O)OC[C@@H]1O[C@H](n2ccc(N)nc2=O)C[C@H]1OC(C)=O [3′5′-diacetyl-L-dC, 3′,5′-Di-O-acetyl-2′-deoxy-β-L-cytidine]",% BA (bioavailability of L-dC),[24],23.0 ± 6.5%
"O=c1[nH]c(=O)n([C@@H]2O[C@H](CO)[C@@H](O)[C@@H]2F)cc1I [FIAU, fialuridine, reference compound]",CC50 at 14 days,[3],4 µM
same,"mtDNA, % of Control",[4],86 % of Control
